Experimental data taken from patent US20040180959A1, “Gabapentin analogues for fibromy algia and concomitant disorders” (priority 2002, published 2004).

Tests used:
Type in all cases: in vivo
Wistar rats = experiment: Water-lick (Vogel) Conflict Test in rats; conditions: for Percent of Animals Tested With >20 Shock Episodes / Mean Shock Episodes (1 mA): pretreatment 120 minutes; for Mean Shock Episodes (1 mA): Mean ± SEM
Description: In each experiment, naive adult male Wistar rats between 170 to 200 g were randomly divided into groups (N=10-30/group) and deprived of water for 48 hours prior to testing. Food was available on Day 1 and removed 24 hours prior to test Day 2.
Apparatus: The modular operant test cage (Coulbourn Instruments) measures 10.25×12×12 in. The test chambers feature 3 modular bays on each side of the cage for a total of 6 bays. A module optical lickometer is mounted on one side of the chamber 5 cm above the grid floor. The lickometer is used to measure licking-drinking from a water bottle mounted outside the test chamber. A photo beam is piped via glass rods to the tip of the drink tube across a gap at the end of the tube. The animals tongue breaks the beam on each lick. The front and back of the test chamber is made of clear Plexiglas. The front door is covered to reduce distractions from inside the test room. The back of the test chamber is facing a wall, away from the flow of traffic within the testing room and remains uncovered to provide the opportunity for observations during testing. Shocks are delivered using a (Coulbourn) programmable universal shocker calibrated to deliver a 1 mA shock for 1 second through the drink tube.
Procedure: On Day 1, after a 24-hour water deprivation, experimental subjects were placed into the test chambers and allowed to drink unpunished. Drinking was limited to 500 responses or approximately 5 mL of water during a 10 minute session. Immediately following the unpunished drinking session, rats were returned to their home cages, deprived of water for an additional 24 hours and was food deprived. […] After the pretreatment period rats were placed into a test chamber and allowed to drink for 10 minutes. After every 10 licks, rats received a 1-second shock (1 mA) through the drink tube. Thus, a conflict or anxiety-producing situation exists. Rats are motivated to drink; however, they are inhibited by the shock. Anxiety is reflected by the low amounts of drinking. Standard anxiolytic drugs produce effects that allow rats to overcome this behavioral inhibition and drink despite the shock.
All data were analyzed using a Kruskal-Wallis one Way Analysis of Variance on Ranks and Mann-Whitney Rank Sum Tests.
Quantitative Analysis: A quantitative analysis represents the percentage of subjects within a treatment group that receives >20 shock episodes during a test session. This number provides a quantitative comparison regarding the distribution of the responses.
(§1) Compound A was dissolved in water and tested orally as a solution from 0.3 to 100 mg/kg in rats and 3 to 300 mg/kg in mice. Dosages are expressed as the active moiety and were administered in a volume of 1 mL/kg for rats and 10 mL/kg for mice.

CD-1 mice = experiment: Tail Suspension Test (TST) in mice; conditions: 2 hours after treatment
Description: The anxiolytic and antidepressant activity of (3S, 4S)-(1-Aminomethyl-3,4-dimethyl-cyclopentyl)-acetic acid (“Compound A”) was assessed using the Tail Suspension Test (TST) in mice, and in the Water-lick (Vogel) Conflict Test (WLC) in rats. The Vogel test is a recognized test procedure for assessing the potential anxiolytic utility. The TST procedure is a behavior despair paradigm used to assess potential antidepressant activity.
The method consisted of suspending mice by a piece of cellophane tape attached to the distal end of the tail for 6 minutes. Animals (CD-1 mice, weighing 22 to 27 g, from Charles River Labs) were tested. The test apparatus was the TST-2™ (ITEM-Labo, Le Kremmlin-Bicetre Cedex, France). Data were analyzed with analysis of variance (ANOVA) and Tukey's Multiple Range Test or Student's t-test.
as §1
The profile of typical […] activity in the TST consists of […]. Compound A and pregabalin were tested concurrently (PO) 2 hours after treatment. Compound A was administered at doses ranging from 3 to 100 mg/kg and pregabalin was tested from 3-300 mg/kg and served as positive control (Table 1). Compound A dose dependently increases immobility with the MED observed at the 3 mg/kg dosage and maximal effects were seen following the 30 mg/kg dose.

mice = experiment: Inverted Screen Test to assess coordination; conditions: immediately following the TST
Description: Immediately following the TST, mice were also tested in the Inverted Screen Test to assess coordination. Animals were given a 1-minute trial in which they had to climb to the top of the inverted screen or to simply hang on and not fall off.

[1] = dose 3× the Vogel MED (30 mg/kg)

Q: How did the “Percent of Animals Tested With >20 Shock Episodes” value (Wistar rats; 0.3 mg/kg PO) turn out when `CC(C)C[C@H](CN)CC(=O)O` [Pregabalin, pregabalin, reference compound] was run?
A: The value was 0%.

Q: And the “Mean Shock Episodes (1 mA)” value (Wistar rats; 0.3 mg/kg PO)?
A: Its value is 5.1 ± 1.0.

Q: What about the “Percent of Animals Tested With >20 Shock Episodes” value (Wistar rats; 1 mg/kg PO) of the same compound?
A: Its value is 20%.

Q: And the “Mean Shock Episodes (1 mA)” value (Wistar rats; 1 mg/kg PO)?
A: The value was 15.0 ± 6.3.

Q: What about the “Percent of Animals Tested With >20 Shock Episodes” value (Wistar rats; 3 mg/kg PO) of the same compound?
A: Its value is 20%.

Q: What about the “Mean Shock Episodes (1 mA)” value (Wistar rats; 3 mg/kg PO) of the same compound?
A: The value was 10.2 ± 1.6.

Q: And the “Percent of Animals Tested With >20 Shock Episodes” value (Wistar rats; 10 mg/kg PO)?
A: The value was 20%.

Q: What about the “Mean Shock Episodes (1 mA)” value (Wistar rats; 10 mg/kg PO) of the same compound?
A: Its value is 14.7 ± 4.0.

Q: And the “Shock episodes (time-course)” value (Wistar rats; 10 mg/kg, 1 hr post treatment)?
A: Its value is 65.8 ± 10.8.

Q: And the “Shock episodes (time-course)” value (Wistar rats; 10 mg/kg, 2 hr post treatment)?
A: The value was 73.3 ± 13.7.

Q: What about the “Shock episodes (time-course)” value (Wistar rats; 10 mg/kg, 4 hr post treatment) of the same compound?
A: The value was 75.1 ± 13.7.

Q: And the “Shock episodes (time-course)” value (Wistar rats; 10 mg/kg, 6 hr post treatment)?
A: The value was 54.9 ± 14.7.

Q: And the “Shock episodes (time-course)” value (Wistar rats; 10 mg/kg, 8 hr post treatment)?
A: The value was 41.9 ± 13.5.

Q: And the “Percent of Animals Tested With >20 Shock Episodes” value (Wistar rats; 30 mg/kg PO)?
A: Its value is 50%.

Q: And the “Mean Shock Episodes (1 mA)” value (Wistar rats; 30 mg/kg PO)?
A: Its value is 51.0 ± 19.1.

Q: And the “Shock episodes (time-course)” value (Wistar rats; 30 mg/kg, 30 min. post treatment)?
A: The value was 27.7 ± 8.2.

Q: And the “Shock episodes (time-course)” value (Wistar rats; 30 mg/kg, 1 hr post treatment)?
A: Its value is 66.5 ± 10.

Q: And the “Shock episodes (time-course)” value (Wistar rats; 30 mg/kg, 2 hr post treatment)?
A: Its value is 59.8 ± 9.8.

Q: What about the “Shock episodes (time-course)” value (Wistar rats; 30 mg/kg, 4 hr post treatment) of the same compound?
A: The value was 100.3 ± 12.

Q: And the “Shock episodes (time-course)” value (Wistar rats; 30 mg/kg, 6 hr post treatment)?
A: The value was 39.5 ± 9.

Q: What about the “Shock episodes (time-course)” value (Wistar rats; 30 mg/kg, 8 hr post treatment) of the same compound?
A: Its value is 30.4 ± 9.1.

Q: And the “Percent of Animals Tested With >20 Shock Episodes” value (Wistar rats; 100 mg/kg PO)?
A: Its value is 50%.

Q: And the “Mean Shock Episodes (1 mA)” value (Wistar rats; 100 mg/kg PO)?
A: The value was 40.7 ± 11.1.

Q: And the “Time of maximal effects after treatment” value (Wistar rats; MED dose 10 mg/kg)?
A: Its value is 2 to 4 h.

Q: What about the Activity maintained through (Wistar rats; [1]) of the same compound?
A: The Activity maintained through was 8 h.

Q: And the “Onset of activity after treatment” value (Wistar rats; [1])?
A: The value was 1 h.

Q: And the “Time of peak activity post treatment” value (Wistar rats; [1])?
A: Its value is 6 h.

Q: And the “MED for anti-conflict activity” value (Wistar rats; oral, 2 hour pretreatment, rats)?
A: The value was 10 mg/kg.

Q: And the “Immobility, % Percent of control” value (CD-1 mice; 3 mg/kg PO)?
A: Its value is 102.9 ± 9.5%.

Q: And the “Power of Movement, % Percent of control” value (CD-1 mice; 3 mg/kg PO)?
A: Its value is 99.1 ± 22.9%.

Q: And the “Immobility, % Percent of control” value (CD-1 mice; 10 mg/kg PO)?
A: The value was 134.5 ± 9.9 %.

Q: What about the “Power of Movement, % Percent of control” value (CD-1 mice; 10 mg/kg PO) of the same compound?
A: The value was 89.6 ± 18.7%.

Q: And the “Immobility, % Percent of control” value (CD-1 mice; 30 mg/kg PO)?
A: Its value is 136.9 ± 7.1 %.

Q: And the “Power of Movement, % Percent of control” value (CD-1 mice; 30 mg/kg PO)?
A: Its value is 96.4 ± 22.7%.

Q: And the “Immobility, % Percent of control” value (CD-1 mice; 100 mg/kg PO)?
A: The value was 152.7 ± 6.6 %.

Q: What about the “Power of Movement, % Percent of control” value (CD-1 mice; 100 mg/kg PO) of the same compound?
A: Its value is 73.4 ± 12.5%.

Q: And the “Immobility, % Percent of control” value (CD-1 mice; 300 mg/kg PO)?
A: Its value is 160.5 ± 7.4 %.

Q: And the “Power of Movement, % Percent of control” value (CD-1 mice; 300 mg/kg PO)?
A: Its value is 76.6 ± 12.2%.

Q: What about the “Screen fall-off, animals of animals tested” value (mice; 100 mg/kg PO) of the same compound?
A: The value was 1 of 10.

Q: And the “Screen fall-off, animals of animals tested” value (mice; 300 mg/kg PO)?
A: Its value is 1 of 10.
